A value given as a limit tells only on which side of the number the result lay.

What all share (type): cell-based
In one assay the test system is MOLM-13. The assay is described as follows: Proliferation inhibition (CellTiter-Glo) in MOLM-13 cells. As to conditions: Homo sapiens, 96 h, MOLM-13 AML cells, heterozygous FLT3-ITD, IC50 (4 days). In a few lines:
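MOLM-13 human AML cells, heterozygous for FLT3-ITD, were grown in RPMI-1640 with 10% heat-inactivated FBS and 1% Pen-Strep. About 10,000 cells in 200 μL were seeded per well of 96-well plates. After 2 hours, compounds from DMSO stocks were dispensed at eight concentrations in duplicate, with 0.2% DMSO as the untreated control. Viability was read as CellTiter-Glo ATP luminescence, and IC50 was obtained from a four-parameter logistic fit.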

Another assay concerns K-562. The assay is described as follows: Proliferation inhibition (CellTiter-Glo) in K-562 cells. As to conditions: Homo sapiens, K562, 96 h, K-562 CML cells, no FLT3 mutations, IC50 (4 days). In a few lines: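 The CML line […] (ATCC: CRL-3343) was cultured in RPMI-1640 with 10% heat-inactivated FBS and 1% Pen-Strep at 37° C. Cells were seeded at about 10,000 per 200 μL in 96-well plates, and test compound was dispensed 2 hours later at eight concentrations in duplicate. Viability was measured as ATP luminescence with CellTiter-Glo. Untreated cells (0.2% DMSO) defined 100% proliferation, and IC50 values came from four-parameter logistic fits.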

In a further assay the test system is MV-4-11. The assay is described as follows: Proliferation inhibition (CellTiter-Glo) in MV-4-11 cells. To be noted: Homo sapiens, MV4-11, 96 h, MV-4-11 AML cells, homozygous FLT3-ITD, IC50 (4 days). In a few lines:
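MV-4-11 human AML cells (homozygous FLT3-ITD) grown in RPMI-1640 with 10% heat-inactivated FBS and 1% Pen-Strep were seeded at about 10,000 cells per 200 μL in 96 well plates. Two hours later, compounds were dispensed at eight concentrations in duplicate. Viability was measured by CellTiter-Glo luminescence, and IC50 values came from four-parameter logistic non-linear regression against untreated cells (0.2% DMSO).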

Take `CCc1nc(C(N)=O)c(Nc2cccc(OCCCNC(=O)[C@H](C)N(C)C(=O)/C=C/CN(C)C)c2)nc1C1CC1` [Compound 125, (S,E)-5-cyclopropyl-3-((3-(3-(2-(4-(dimethylamino)-N-methylbut-2-enamido)propanamido)propoxy)phenyl)amino)-6-ethylpyrazine-2-carboxamide]: the results for the half-maximal inhibitory concentration (IC50) in the assay with MOLM-13, in the assay with K-562 and in the assay with MV-4-11 were 10 to 100 nM, above 500 nM and 1 to 10 nM, respectively.

Turning to `C#CC(=O)NCCC(=O)NCCc1cc(Nc2nc(NC3CCOCC3)c(CC)nc2C(N)=O)cc(OC)c1` [Compound 31, 6-Ethyl-3-((3-methoxy-5-(2-(3-propiolamidopropanamido)ethyl)phenyl)amino)-5-((tetrahydro-2H-pyran-4-yl)amino)pyrazine-2-carboxamide], the figures for the IC50 in the assay on MOLM-13, with K-562 and with MV-4-11 were 1 to 10 nM, above 500 nM and below 1 nM, respectively.

In the case of `CCc1nc(C(N)=O)c(Nc2cccc(OCCCNC(=O)[C@H](C)N(C)C/C=C/C(=O)N(C)C)c2)nc1NC1CCOCC1` [Compound 140, (S,E)-3-((3-(3-(2-((4-(dimethylamino)-4-oxobut-2-en-1-yl)(methyl)amino)propanamido)propoxy)phenyl)amino)-6-ethyl-5-((tetrahydro-2H-pyran-4-yl)amino)pyrazine-2-carboxamide], the figures for the half-inhibitory concentration (IC50) in the assay on MOLM-13, in the assay with K-562 and with MV-4-11 were 10 to 100 nM, above 500 nM and 10 to 100 nM, respectively.

For `CCc1nc(C(N)=O)c(Nc2cc(CCNC(=O)[C@H](C(C)C)N(C)C(=O)/C=C/CN(C)C)cc(OC)c2)nc1NC1CCOCC1` [Compound 131, (S,E)-3-((3-(2-(2-(4-(dimethylamino)-N-methylbut-2-enamido)-3-methylbutanamido)ethyl)-5-methoxyphenyl)amino)-6-ethyl-5-((tetrahydro-2H-pyran-4-yl)amino)pyrazine-2-carboxamide], the 50% inhibitory concentration (IC50) in the assay with MOLM-13 is 10 to 100 nM; in the assay on K-562, above 500 nM; with MV-4-11, 1 to 10 nM.

Regarding `CC#CC(=O)N(C)CCC(=O)NCCc1cc(Nc2nc(NC3CCOCC3)c(CC)nc2C(N)=O)cc(OC)c1` [Compound 35, 3-[3-[2-[3-[but-2-ynoyl(methyl)amino]propanoylamino]ethyl]-5-methoxy-anilino]-6-ethyl-5-(tetrahydropyran-4-ylamino)pyrazine-2-carboxamide], the concentration for half-maximal inhibition (IC50) is 10 to 100 nM with MOLM-13, above 500 nM in the assay with K-562 and 10 to 100 nM in the assay on MV-4-11.

For `C=CC(=O)N(C)[C@@H](C)C(=O)NCC#Cc1cc(Nc2nc(NC3CCOCC3)c(CC)nc2C(N)=O)cc(OC)c1` [Compound 107, 6-ethyl-3-[3-methoxy-5-[3-[[(2S)-2-[methyl(prop-2-enoyl)amino]propanoyl]amino]prop-1-ynyl]anilino]-5-(tetrahydropyran-4-ylamino)pyrazine-2-carboxamide], the concentration for half-maximal inhibition (IC50) in the assay on MOLM-13 was 1 to 10 nM; in the assay with K-562, above 500 nM; in the assay on MV-4-11 it was 1 to 10 nM.

As for `C=CS(=O)(=O)NCCCCOc1cccc(Nc2nc(NC3CCOCC3)c(CC)nc2C(N)=O)c1` [Compound 2, 6-Ethyl-5-((tetrahydro-2H-pyran-4-yl)amino)-3-((3-(4-(vinylsulfonamido)butoxy)phenyl)amino)pyrazine-2-carboxamide], the figures for the 50% inhibitory concentration (IC50) in the assay with MOLM-13, in the assay on K-562 and in the assay with MV-4-11 were 100 to 500 nM, above 500 nM and 100 to 500 nM, respectively.

Regarding `CCc1nc(C(N)=O)c(Nc2cccc(OCCCNC(=O)[C@H](C)N(C)C(=O)/C=C/CN(C)C)c2)nc1NC` [Compound 119, (S,E)-3-((3-(3-(2-(4-(dimethylamino)-N-methylbut-2-enamido)propanamido)propoxy)phenyl)amino)-6-ethyl-5 (methylamino)pyrazine-2-carboxamide], the figures for the IC50 in the assay on MOLM-13, in the assay with K-562 and with MV-4-11 were 1 to 10 nM, above 500 nM and 1 to 10 nM, respectively.

For the compound `CCc1nc(C(N)=O)c(Nc2cccc(OCCCNC(=O)[C@H](C)N(C)C(=O)/C=C/CN(C)C)c2)nc1C` [Compound 126, (S,E)-3-((3-(3-(2-(4-(dimethylamino)-N-methylbut-2-enamido)propanamido)propoxy)phenyl)amino)-6-ethyl-5-methylpyrazine-2-carboxamide], the figures for the IC50 in the assay on MOLM-13, in the assay on K-562 and with MV-4-11 were 10 to 100 nM, above 500 nM and 1 to 10 nM, respectively.

Consider `CCc1nc(C(N)=O)c(Nc2cc(F)cc(O[C@@H](C)CNC(=O)[C@H](C)N(C)C(=O)/C=C/CN(C)C)c2)nc1N(C)C` [Compound 153, 5-(dimethylamino)-3-((3-(((S)-1-((S)-2-((E)-4-(dimethylamino)-N-methylbut-2-enamido)propanamido)propan-2-yl)oxy)-5-fluorophenyl)amino)-6-ethylpyrazine-2-carboxamide], for which the IC50 with MOLM-13 is 10 to 100 nM; with K-562, above 500 nM; in the assay with MV-4-11, 1 to 10 nM.

With `C=CC(=O)NCCCOc1cccc(Nc2nc(NC3CCOCC3)c(CC)nc2C(N)=O)c1` [Compound 3, 3-((3-(3-Acrylamidopropoxy)phenyl)amino)-6-ethyl-5-((tetrahydro-2H-pyran-4-yl)amino)pyrazine-2-carboxamide], the concentration for half-maximal inhibition (IC50) with MOLM-13 is 100 to 500 nM; with K-562 it was above 500 nM; with MV-4-11, 100 to 500 nM.

`CC#CC(=O)N(C)[C@@H](C)C(=O)NCCCOc1cc(F)cc(Nc2nc(NC3CCOCC3)c(CC)nc2C(N)=O)c1` [Compound 128, (S)-6-ethyl-3-((3-fluoro-5-(3-(2-(N-methylbut-2-ynamido)propanamido)propoxy)phenyl)amino)-5-((tetrahydro-2H-pyran-4-yl)amino)pyrazine-2-carboxamide]: the values for the IC50 with MOLM-13, in the assay on K-562 and in the assay with MV-4-11 were 1 to 10 nM, above 500 nM and 1 to 10 nM, respectively.

Consider `C=CC(=O)N(C)[C@@H](C)C(=O)NCCNc1cc(Nc2nc(NC3CCOCC3)c(CC)nc2C(N)=O)ccn1` [Compound 40, 6-ethyl-3-[[2-[2-[[(2S)-2-[methyl(prop-2-enoyl)amino]propanoyl]amino]ethylamino]-4-pyridyl]amino]-5-(tetrahydropyran-4-ylamino)pyrazine-2-carboxamide], for which the IC50 in the assay on MOLM-13 was 1 to 10 nM; in the assay on K-562, above 500 nM; in the assay with MV-4-11 it was 1 to 10 nM.

`CC#CC(=O)N(C)[C@@H](C)C(=O)NCCOc1cccc(Nc2nc(NC3CCOCC3)c(CC)nc2C(N)=O)c1` [Compound 104, 3-[3-[2-[[(2S)-2-[but-2-ynoyl(methyl)amino]propanoyl]amino]ethoxy]anilino]-6-ethyl-5-(tetrahydropyran-4-ylamino)pyrazine-2-carboxamide]: the values for the IC50 with MOLM-13, in the assay on K-562 and in the assay with MV-4-11 were 1 to 10 nM, above 500 nM and 1 to 10 nM, respectively.

Turning to `C=CC(=O)NCCC#Cc1cccc(Nc2nc(NC3CCOCC3)c(CC)nc2C(N)=O)c1` [Compound 11, 3-((3-(4-Acrylamidobut-1-yn-1-yl)phenyl)amino)-6-ethyl-5-((tetrahydro-2H-pyran-4-yl)amino)pyrazine-2-carboxamide], the concentration for half-maximal inhibition (IC50) is 10 to 100 nM with MOLM-13, above 500 nM with K-562 and 10 to 100 nM in the assay with MV-4-11.

As to `C#CC(=O)NCCCCOc1cccc(Nc2nc(NC3CCOCC3)c(CC)nc2C(N)=O)c1` [Compound 5, 6-Ethyl-3-((3-(4-propiolamidobutoxy)phenyl)amino)-5-((tetrahydro-2H-pyran-4-yl)amino)pyrazine-2-carboxamide], the half-inhibitory concentration (IC50) is 10 to 100 nM with MOLM-13, above 500 nM in the assay on K-562 and 10 to 100 nM in the assay with MV-4-11.

For `C=CC(=O)N(C)[C@@H](C)C(=O)NCCCOc1cccc(Nc2nc(NC3CCOCC3)c(CC)nc2C(N)=O)c1` [Compound 36, 6-ethyl-3-[3-[3-[[(2S)-2-[methyl(prop-2-enoyl)amino]propanoyl]amino]propoxy]anilino]-5-(tetrahydropyran-4-ylamino)pyrazine-2-carboxamide], the IC50 is 1 to 10 nM with MOLM-13, above 500 nM in the assay on K-562 and below 1 nM with MV-4-11.

In the case of `C=CC(=O)N(C)[C@@H](C)C(=O)NCCOc1cccc(Nc2nc(NC3CCOCC3)c(CC)nc2C(N)=O)c1` [Compound 38, 6-ethyl-3-[3-[2-[[(2S)-2-[methyl(prop-2-enoyl)amino]propanoyl]amino]ethoxy]anilino]-5-(tetrahydropyran-4-ylamino)pyrazine-2-carboxamide], the IC50 was 10 to 100 nM with MOLM-13, above 500 nM in the assay on K-562 and 1 to 10 nM with MV-4-11.

For `C#CC(=O)NCCC#Cc1cccc(Nc2nc(NC3CCOCC3)c(CC)nc2C(N)=O)c1` [Compound 15, 6-Ethyl-3-((3-(4-propiolamidobut-1-yn-1-yl)phenyl)amino)-5-((tetrahydro-2H-pyran-4-yl)amino)pyrazine-2-carboxamide], the values for the IC50 with MOLM-13, with K-562 and with MV-4-11 were 10 to 100 nM, above 500 nM and 10 to 100 nM, respectively.

In the case of `C[C@@H](C(=O)NCCCOc1cccc(Nc2nc(NC3CCOCC3)c(C3CC3)nc2C(N)=O)c1)N(C)C(=O)/C=C/CN(C)C` [Compound 133, (S,E)-6-cyclopropyl-3-((3-(3-(2-(4-(dimethylamino)-N-methylbut-2-enamido)propanamido)propoxy)phenyl)amino)-5-((tetrahydro-2H-pyran-4-yl)amino)pyrazine-2-carboxamide], the values for the IC50 with MOLM-13, in the assay on K-562 and in the assay with MV-4-11 were 1 to 10 nM, above 500 nM and below 1 nM, respectively.

For the origin of these results see patent US20250136558A1, “PYRAZINE COMPOUNDS AS IRREVERSIBLE INHIBITORS OF FLT3” (BIOMEA FUSION, INC., priority 2021, published 2025).
